Laboratory results taken from patent US3981999A, “Fish disease treatment” (Dainippon Pharmaceutical Co., Ltd., priority 1973, dated 1976).
Values after ≈ are worked out from the molar mass of the structure shown.

Columns and labels:
[1] = Bathing toxicity in goldfish; assay type: in vivo; conditions: fresh water; goldfish, bathing for 5 days, 27° to 30°C; read-out: LC50 (50% lethal concentration)
Method: (§1) Groups of goldfish each weighing 7 to 8 g (each group consisting of 6 goldfish) were placed in 6 liters of fresh water (27° to 30°C.) containing PA in varying concentrations with aeration for 5 days. During this time, observation was made.

goldfish [2] = assay: Bathing toxicity in goldfish; assay type: in vivo; conditions: for Mortality: 5 days; for Number of the survival after 1 day / Number of the survival after 2 days / Number of the survival after 3 days / Number of the survival after 4 days / Number of the survival after 5 days: day 0: 6 fish
Method: as §1

[3] = test system: Aeromonas salmonicida Hara-1; assay: MIC by broth serial dilution; assay type: cell-based; conditions: HARA1, bouillon pH 7.2, 25°C, 48 hours, read-out: MIC
Method: (§2) The MIC (minimum inhibitory concentration) of a test compound was determined by the serial dilution method on various pathogenic microorganisms incubated under the following experimental conditions. The lowest concentration at which the visible growth of the organism was inhibited was considered as MIC. […]
(§3) the broth-dilution method bouillon, pH 7.2, except for Vibrio (3% NaCl-bouillon, pH 7.2), Pasteurella (2% NaCl-Brain Heart Infusion, pH 7.3 and Chondrococcus (TY medium, pH 7.3) 1 drop of a bacterial suspension per test tube (100 - 1000 minimal growing units in the medium) 25°C, except for Pseud. anguilliseptica (20°C)
(§4) 48 hours, except for Pseudo. anguilliseptica ([…])

[4] = test system: Pasteurella piscicida K-1; assay: MIC by broth serial dilution; assay type: cell-based; conditions: Photobacterium damselae, K1; 2% NaCl-Brain Heart Infusion pH 7.3, 25°C, 48 hours; read-out: MIC
Method: as §2, §3, §4

Vibrio anguillarum A-8 = assay: MIC by broth serial dilution; assay type: cell-based; conditions: A8, 3% NaCl-bouillon pH 7.2, 25°C, 48 hours, read-out: MIC
Method: as §2, §3, §4

Vibrio anguillarum Km-30 = assay: MIC by broth serial dilution; assay type: cell-based; conditions: KM30, 3% NaCl-bouillon pH 7.2, 25°C, 48 hours, read-out: MIC
Method: as §2, §3, §4

Chondrococcus sp K-2 = assay: MIC by broth serial dilution; assay type: cell-based; conditions: TY medium pH 7.3, 25°C, 48 hours; read-out: MIC
Method: as §2, §3, §4

Vibrio anguillarum K-3 = assay: MIC by broth serial dilution; assay type: cell-based; conditions: K3, 3% NaCl-bouillon pH 7.2, 25°C, 48 hours, read-out: MIC
Method: as §2, §3, §4

[5] = test system: Pseudomonas anguilliseptica T-2; assay: MIC by broth serial dilution; assay type: cell-based; conditions: T2, bouillon pH 7.2, 20°C, 7 hours, read-out: MIC
Method: as §2, §3, §4

[6] = test system: Aeromonas salmonicida Kawazu; assay: MIC by broth serial dilution; assay type: cell-based; conditions: bouillon pH 7.2, 25°C, 48 hours, read-out: MIC
Method: as §2, §3, §4

[7] = test system: Aeromonas liquefaciens Y-62; assay: MIC by broth serial dilution; assay type: cell-based; conditions: Aeromonas hydrophila, Y62; bouillon pH 7.2, 25°C, 48 hours; read-out: MIC
Method: as §2, §3, §4

[8] = test system: Aeromonas salmonicida Kusuda; assay: MIC by broth serial dilution; assay type: cell-based; conditions: bouillon pH 7.2, 25°C, 48 hours, read-out: MIC
Method: as §2, §3, §4

[9] = test system: Aeromonas salmonicida Hara-2; assay: MIC by broth serial dilution; assay type: cell-based; conditions: HARA2, bouillon pH 7.2, 25°C, 48 hours, read-out: MIC
Method: as §2, §3, §4

[10] = test system: Pasteurella piscicida Al-3; assay: MIC by broth serial dilution; assay type: cell-based; conditions: Photobacterium damselae, AL3; 2% NaCl-Brain Heart Infusion pH 7.3, 25°C, 48 hours; read-out: MIC
Method: as §2, §3, §4

[11] = test system: Pseudomonas anguilliseptica S-1; assay: MIC by broth serial dilution; assay type: cell-based; conditions: S1, bouillon pH 7.2, 20°C, 7 hours, read-out: MIC
Method: as §2, §3, §4

Chondrococcus sp K-1 = assay: MIC by broth serial dilution; assay type: cell-based; conditions: TY medium pH 7.3, 25°C, 48 hours; read-out: MIC
Method: as §2, §3, §4

[12] = test system: Aeromonas liquefaciens Y-62; assay: Oral administration to eels after Aeromonas infection; assay type: in vivo, eels (Anguilla Japonica); conditions: oral 3.1 mg/kg/day at 4 hours after infection and next day; seventh day
Method: Groups of eels (Anguilla Japonica, average weight 100 g) (each group consisting of 50 eels) were infected intramuscularly with Aeromonas liquefaciens Y-62 (10^9 germs/fish). A suspension consisting of a diet containing PA was orally administered to the eels at 4 hours after the infection and on the next day, using a catheter, at a dose of 3.1 mg/kg/day.
The temperature of the water was kept at 25° to 26°C. during the entire experimental period.

[13] = test system: Aeromonas liquefacieus Y-62; assay: Oral effect against Aeromonas infection in goldfish; assay type: in vivo; conditions: for Percent survival: 5 days; for Number of surviving fish after 1 day / Number of surviving fish after 2 days / Number of surviving fish after 3 days / Number of surviving fish after 4 days / Number of surviving fish after 5 days: day 0: PA 10, others 5 fish
Method: Goldfish each weighing about 6 - 7 g were given a fish food containing each of the test compounds. After 30 minutes, the fish were infected intramuscularly with Aeromonas liquefacieus Y-62 (about 10^7 germs/fish) under ether anesthesia. […] In the same manner, the control group was given the same fish food without the test compound.

goldfish [14] = assay: Oral toxicity in goldfish; assay type: in vivo; conditions: 10% in diet (PA 800, AT-1493 955, AT-1557 935, AT-1475 923 mg/kg)
Method: A diet containing 10% of each of the test compounds was given orally to groups each consisting of 5 goldfish each weighing 6 to 10 g, and observation was made for the following 7 days. The temperature of the water was maintained at 28°C.

[15] = 0.03% in diet (PA 2.5, AT-1493 2.5, AT-1557 2.2 mg/kg)
[16] = 0.1% in diet (PA 6.1, AT-1493 7.5, AT-1557 7.6, AT-1475 7.5 mg/kg)

CCn1cc(C(=O)O)c(=O)c2cnc(N3CCCC3)nc21 [PA, 5,8-dihydro-2-pyrrolidino-8-ethyl-5-oxopyrido[2,3-d]pyrimidine-6-carboxylic acid]
LC50 at 120 h [1]: 10.1 µg/mL (≈ 35.1 µM)
Mortality (goldfish [2]; bathing conc. 4 μg/ml): 0%
Number of the survival after 1 day (goldfish [2]; bathing conc. 4 μg/ml): 6
Number of the survival after 2 days (goldfish [2]; bathing conc. 4 μg/ml): 6
Number of the survival after 3 days (goldfish [2]; bathing conc. 4 μg/ml): 6
Number of the survival after 4 days (goldfish [2]; bathing conc. 4 μg/ml): 6
Number of the survival after 5 days (goldfish [2]; bathing conc. 4 μg/ml): 6
Mortality (goldfish [2]; bathing conc. 8 μg/ml): 20%
Number of the survival after 1 day (goldfish [2]; bathing conc. 8 μg/ml): 6
Number of the survival after 2 days (goldfish [2]; bathing conc. 8 μg/ml): 6
Number of the survival after 3 days (goldfish [2]; bathing conc. 8 μg/ml): 5
Number of the survival after 4 days (goldfish [2]; bathing conc. 8 μg/ml): 5
Number of the survival after 5 days (goldfish [2]; bathing conc. 8 μg/ml): 5
Mortality (goldfish [2]; bathing conc. 16 μg/ml): 100%
Number of the survival after 1 day (goldfish [2]; bathing conc. 16 μg/ml): 6
Number of the survival after 2 days (goldfish [2]; bathing conc. 16 μg/ml): 6
Number of the survival after 3 days (goldfish [2]; bathing conc. 16 μg/ml): 1
Number of the survival after 4 days (goldfish [2]; bathing conc. 16 μg/ml): 0
MIC [3]: 0.1 µg/mL (≈ 0.347 µM)
MIC [4]: 1 µg/mL (≈ 3.47 µM)
MIC (Vibrio anguillarum A-8): 3 µg/mL (≈ 10.4 µM)
MIC (Vibrio anguillarum Km-30): 3 µg/mL (≈ 10.4 µM)
MIC (Chondrococcus sp K-2): 0.3 µg/mL (≈ 1.04 µM)
MIC (Vibrio anguillarum K-3): 1 µg/mL (≈ 3.47 µM)
MIC [5]: 0.1 µg/mL (≈ 0.347 µM)
MIC [6]: 0.1 µg/mL (≈ 0.347 µM)
MIC [7]: 1 µg/mL (≈ 3.47 µM)
MIC [8]: 0.1 µg/mL (≈ 0.347 µM)
MIC [9]: 1 µg/mL (≈ 3.47 µM)
MIC [10]: 0.3 µg/mL (≈ 1.04 µM)
MIC [11]: 0.1 µg/mL (≈ 0.347 µM)
MIC (Chondrococcus sp K-1): 0.3 µg/mL (≈ 1.04 µM)
rate of survival [12]: 100%
Percent survival [13, 15]: 60%
Number of surviving fish after 1 day [13, 15]: 10
Number of surviving fish after 2 days [13, 15]: 9
Number of surviving fish after 3 days [13, 15]: 7
Number of surviving fish after 4 days [13, 15]: 6
Number of surviving fish after 5 days [13, 15]: 6
Percent survival [13, 16]: 100%
Number of surviving fish after 1 day [13, 16]: 10
Number of surviving fish after 2 days [13, 16]: 10
Number of surviving fish after 3 days [13, 16]: 10
Number of surviving fish after 4 days [13, 16]: 10
Number of surviving fish after 5 days [13, 16]: 10
Mortality (goldfish [14]; 7 days): 0%
Number of the survival after 1 day from administration (goldfish [14]; day 0: 5 fish): 5
Number of the survival after 2 days from administration (goldfish [14]; day 0: 5 fish): 5
Number of the survival after 3 days from administration (goldfish [14]; day 0: 5 fish): 5
Number of the survival after 4 days from administration (goldfish [14]; day 0: 5 fish): 5
Number of the survival after 5 days from administration (goldfish [14]; day 0: 5 fish): 5
Number of the survival after 6 days from administration (goldfish [14]; day 0: 5 fish): 5
Number of the survival after 7 days from administration (goldfish [14]; day 0: 5 fish): 5
